Laboratory results taken from patent publication US20130230571A1, “MACROCYCLIC LACTONE COMPOUNDS AND METHODS FOR THEIR USE” (Elixir Medical Corporation, priority 2010, published 2013).
Entries after “also recorded” stand apart in the source; their conditions may differ.

What was measured:
MMP-9 = MMP-9 production by LPS-activated macrophages, ELISA; format: cell-based; conditions: 10 nM
Experimental: (§1) In cell culture studies, macrophages were activated to secrete cytokines such as MMP-9 and MCP-1 by treating the cells to E Coli lippopolysaccharide (LPS). Inhibition of these cytokines upon treatment of the activated macrophages with myolimus and rapamycin with 10 nM concentration was tested using ELISA assay.

MCP-1 = MCP-1 production by LPS-activated macrophages, ELISA; format: cell-based; conditions: 10 nM
Experimental: as §1

human smooth muscle cell = assay: in vitro human smooth muscle cell culture testing, incorporated thymidine; format: cell-based; conditions: exposure for 8 hours; human smooth muscle cells; read-out: IC50 (incorporated thymidine, anti-proliferative)
Experimental: The amounts of incorporated thymidine for samples of myolimus of varying concentrations (0.0001, 0.001, 0.01, 0.1, and 1 μM) and of rapamycin of varying concentrations (0.0001, 0.001, 0.01, 0.1, and 1 μM) were measured after exposure for 8 hours (as shown in FIG. 1). The IC50 of both myolimus and rapamycin was 0.1 nM indicating potent anti-proliferative properties.

[1] = cited from earlier work

## CO[C@H]1C[C@@H]2CC[C@@H](C)[C@@](O)(O2)C(=O)C(=O)N2CCCC[C@H]2C(=O)O[C@H]([C@H](C)C[C@@H]2CC[C@@H](O)[C@H](OC)C2)CC(=O)[C@H](C)/C=C(\C)[C@@H](O)[C@@H](OC)C(=O)[C@H](C)C[C@H](C)/C=C/C=C/C=C/1C [rapamycin, Rapamycin]
MMP-9
  production of the cytokine MMP-9: increased the production of MMP-9
MMP-9; listed as Rapamycin
  production of the cytokine MMP-9: increased the production
MCP-1
  production of cytokine MCP-1: did not impact the production of MCP-1; also recorded: did not have any impact
Human smooth muscle cell
  IC50: 0.1 nM
[1]
  solubility in water: very slightly soluble in water

## CO[C@H]1C[C@@H]2CC[C@@H](C)[C@@](O)(O2)C(=O)C(=O)N2CCCC[C@H]2C(=O)O[C@H]([C@H](C)C[C@@H]2CC[C@@H](O)[C@H](OC)C2)CC[C@H](C)/C=C(\C)[C@@H](O)[C@@H](OC)C(=O)[C@H](C)C[C@H](C)/C=C/C=C/C=C/1C [myolimus, 32-deoxo-rapamycin]
MMP-9
  production of the cytokine MMP-9: inhibiting production of MMP-9
MMP-9; listed as Myolimus
  production of the cytokine MMP-9: reduced the production
MCP-1
  production of cytokine MCP-1: inhibiting the production
MCP-1; listed as Myolimus
  production of cytokine MCP-1: reduced the production
Human smooth muscle cell
  IC50: 0.1 nM
